From patent EP2818472A1, “Imidazo[4,5-c]pyridine and pyrrolo[3,2-c]pyridine compounds as G-protein-coupled receptor kinase 5 (GRK5) modulators” (Max-Planck-Gesellschaft zur Förderung der Wissenschaften …, priority 2013, dated 2014)

System: beta-TC6 cells
Assay: Insulin HTRF assay (relative activity Ar) in beta-TC6 cells
Type: cell-based, mouse
Settings: Mus musculus, Beta-TC6, 4 h, insulin HTRF, supernatant of beta-TC6 cells, incubation with test compound at 37°C for 2, 3, 4h; read-out: Ar (relative activity)
Method in brief: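 beta-TC6 cells (15k/well, seeded 24 or 48 h) washed, then exposed to compound in induction buffer (0.5% DMSO final) for 2, 3 or 4 h at 37°C.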

| SMILES | Emax [%] |
| --- | --- |
| CNc1nc2cnc(Nc3cccc(N(C)C)c3)cc2n1CC1CC1 [Compound 573, 1-(cyclopropylmethyl)-N6-[3-(dimethylamino)phenyl]-N2-methyl-imidazo[4,5-c]pyridine-2,6-diamine] | 30 to 50 |
| OC1CCC(Nc2nccc3[nH]c(-c4cccc(OC(F)(F)F)c4)nc23)CC1 (stereo not shown) [Compound 443, 4-[[2-[3-(trifluoromethoxy)phenyl]-1H-imidazo[4,5-c]pyridin-4-yl]amino]cyclohexanol] | 30 to 50 |
| Fc1ccc(-c2nc3ccncc3[nH]2)cc1 [Compound 775, 2-(4-fluorophenyl)-3H-imidazo[4,5-c]pyridine] | 0 to 30 |
| COc1cc(Nc2nccc3[nH]c(-c4ccc5c(c4)OCCO5)nc23)cc(OC)c1OC [Compound 409, 2-(2,3-dihydro-1,4-benzodioxin-6-yl)-N-(3,4,5-trimethoxyphenyl)-1H-imidazo[4,5-c]pyridin-4-amine] | 50 to 100 |
| CNc1nc2cnc(Nc3cccc(O)c3)cc2n1-c1cccc(C(F)(F)F)c1 [Compound 550, 3-[[2-(methylamino)-1-[3-(trifluoromethyl)phenyl]imidazo[4,5-c]pyridin-6-yl]amino]phenol] | 30 to 50 |
| Cn1nc(C(C)(C)C)cc1Nc1cc2c(cn1)ncn2Cc1ccco1 [Compound 776, N-(5-tert-butyl-2-methyl-pyrazol-3-yl)-1-(2-furylmethyl)imidazo[4,5-c]pyridin-6-amine] | 0 to 30 |
| CNc1nc2cnc(Nc3ccc(NC(C)=O)cc3)cc2n1CC1CC1 [Compound 568, N-[4-[[1-(cyclopropylmethyl)-2-(methylamino)imidazo[4,5-c]pyridin-6-yl]amino]phenyl]acetamide] | 50 to 100 |
| CN(C)C(=O)c1ccc(-c2cc3cnc(Nc4cccc(NS(C)(=O)=O)c4)cc3n2C)cc1 [Compound 55, 4-[6-[3-(methanesulfonamido)anilino]-1-methyl-pyrrolo[3,2-c]pyridin-2-yl]-N,N-dimethyl-benzamide] | 50 to 100 |
| Fc1cccc(-c2nc3c(NCCc4ccccn4)nccc3[nH]2)c1 [Compound 406, 2-(3-fluorophenyl)-N-[2-(2-pyridyl)ethyl]-1H-imidazo[4,5-c]pyridin-4-amine] | 50 to 100 |
| CC(=O)Nc1cccc(Nc2cc3[nH]c(-c4ccccc4)cc3cn2)c1 [Compound 183, N-[3-[(2-phenyl-1H-pyrrolo[3,2-c]pyridin-6-yl)amino]phenyl]acetamide] | 50 to 100 |
| COc1ccc(CNc2nc3cnc(Nc4ccc(C(N)=O)cc4)cc3n2C)cc1OC [Compound 601, 4-[[2-[(3,4-dimethoxyphenyl)methylamino]-1-methyl-imidazo[4,5-c]pyridin-6-yl]amino]benzamide] | 50 to 100 |
| CC(=O)c1cccc(-c2cc3c(cn2)nc(NCc2ccccc2F)n3C)c1 [Compound 747, 1-[3-[2-[(2-fluorophenyl)methylamino]-1-methyl-imidazo[4,5-c]pyridin-6-yl]phenyl]ethanone] | 0 to 30 |
| COCCCNc1nccc2[nH]c(-c3ccccc3)nc12 [Compound 340, N-(3-methoxypropyl)-2-phenyl-1H-imidazo[4,5-c]pyridin-4-amine] | 30 to 50 |
| CNc1nc2cnc(Nc3ccc(NC(C)=O)cc3)cc2n1Cc1ccc(OC)c(OC)c1 [Compound 661, N-[4-[[1-[(3,4-dimethoxyphenyl)methyl]-2-(methylamino)imidazo[4,5-c]pyridin-6-yl]amino]phenyl]acetamide] | 50 to 100 |
| COc1cc(Nc2cc3c(cn2)nc(-c2ccncc2)n3C)cc(OC)c1OC [Compound 724, 1-methyl-2-(4-pyridyl)-N-(3,4,5-trimethoxyphenyl)imidazo[4,5-c]pyridin-6-amine] | 30 to 50 |
| CNc1nc2cnc(Nc3cccc(C(C)=O)c3)cc2n1-c1ccccc1 [Compound 517, 1-[3-[[2-(methylamino)-1-phenyl-imidazo[4,5-c]pyridin-6-yl]amino]phenyl]ethanone] | 50 to 100 |
| CNc1nc2cnc(Nc3ccc4c(c3)OCO4)cc2n1-c1ccccc1 [Compound 512, N6-(1,3-benzodioxol-5-yl)-N2-methyl-1-phenyl-imidazo[4,5-c]pyridine-2,6-diamine] | 50 to 100 |
| c1ccc(Cn2cnc3c(NCc4ccc5c(c4)OCO5)nccc32)cc1 [Compound 454, N-(1,3-benzodioxol-5-ylmethyl)-1-benzyl-imidazo[4,5-c]pyridin-4-amine] | 50 to 100 |
| COCCNc1nc2cnc(-c3cccc(N(C)C)c3)cc2n1C [Compound 647, 6-[3-(dimethylamino)phenyl]-N-(2-methoxyethyl)-1-methyl-imidazo[4,5-c]pyridin-2-amine] | 50 to 100 |
| Cn1c(-c2ccsc2)cc2c(Nc3ccc(O)cc3)nccc21 [Compound 271, 4-[[1-methyl-2-(3-thienyl)pyrrolo[3,2-c]pyridin-4-yl]amino]phenol] | 50 to 100 |
| Cn1c(-c2cccnc2)cc2c(Nc3ccc(F)cc3)nccc21 [Compound 242, N-(4-fluorophenyl)-1-methyl-2-(3-pyridyl)pyrrolo[3,2-c]pyridin-4-amine] | 0 to 30 |
| CNc1nc2cnc(Nc3ccc4c(c3)OCCO4)cc2n1CCN1CCOCC1 [Compound 554, N6-(2,3-dihydro-1,4-benzodioxin-6-yl)-N2-methyl-1-(2-morpholinoethyl)imidazo[4,5-c]pyridine-2,6-diamine] | 50 to 100 |

| SMILES | Emax [%] |
| --- | --- |
| COc1ccc(-c2cc3c(cn2)nc(NCc2cccc(C)c2)n3C)cc1OC [Compound 579, 6-(3,4-dimethoxyphenyl)-1-methyl-N-(m-tolylmethyl)imidazo[4,5-c]pyridin-2-amine] | 30 to 50 |
| Cc1cccc(CNc2nc3cnc(Nc4ccc5c(c4)OCCO5)cc3n2C)c1 [Compound 577, N6-(2,3-dihydro-1,4-benzodioxin-6-yl)-1-methyl-N2-(m-tolylmethyl)imidazo[4,5-c]pyridine-2,6-diamine] | 50 to 100 |
| COCc1nc2cnc(Nc3cc(OC)c(OC)c(OC)c3)cc2n1C [Compound 745, 2-(methoxymethyl)-1-methyl-N-(3,4,5-trimethoxyphenyl)imidazo[4,5-c]pyridin-6-amine] | 30 to 50 |
| CNc1nc2cnc(-c3ccc(NC(C)=O)cc3)cc2n1Cc1ccccc1 [Compound 799, N-[4-[1-benzyl-2-(methylamino)imidazo[4,5-c]pyridin-6-yl]phenyl]acetamide] | 0 to 30 |
| Sc1nc2cnccc2n1-c1ccccc1 [Compound 741, 1-phenylimidazo[4,5-c]pyridine-2-thiol] | 50 to 100 |
| COc1ccc(Nc2cc3c(cn2)cc(-c2cnn(C)c2)n3C)cc1OC [Compound 129, N-(3,4-dimethoxyphenyl)-1-methyl-2-(1-methylpyrazol-4-yl)pyrrolo[3,2-c]pyridin-6-amine] | > 100 |
| FC(F)(F)c1cccc(-c2cc3c(cn2)ncn3-c2ccccc2)c1 [Compound 752, 1-phenyl-6-[3-(trifluoromethyl)phenyl]imidazo[4,5-c]pyridine] | 0 to 30 |
| CN(C)c1cccc(Nc2cc3c(cn2)cc(-c2cnn(C)c2)n3C)c1 [Compound 134, N1,N1-dimethyl-N3-[1-methyl-2-(1-methylpyrazol-4-yl)pyrrolo[3,2-c]pyridin-6-yl]benzene-1,3-diamine] | 50 to 100 |
| CNc1nc2cnc(Nc3cccc(N(C)C)c3)cc2n1-c1ccccc1 [Compound 508, N6-[3-(dimethylamino)phenyl]-N2-methyl-1-phenyl-imidazo[4,5-c]pyridine-2,6-diamine] | 50 to 100 |
| CNc1nc2cnc(Nc3ccc(C(=O)OC)cc3)cc2n1-c1ccccc1 [Compound 511, methyl 4-[[2-(methylamino)-1-phenyl-imidazo[4,5-c]pyridin-6-yl]amino]benzoate] | 30 to 50 |
| CC(=O)N(C)c1cccc(-c2cc3cnc(Nc4cccnc4)cc3n2C)c1 [Compound 162, N-methyl-N-[3-[1-methyl-6-(3-pyridylamino)pyrrolo[3,2-c]pyridin-2-yl]phenyl]acetamide] | 50 to 100 |
| COc1ccc(Nc2nccc3[nH]c(-c4cccc(O)c4)nc23)cc1 [Compound 362, 3-[4-(4-methoxyanilino)-1H-imidazo[4,5-c]pyridin-2-yl]phenol] | 50 to 100 |
| CN(C)c1ccc(CNc2nccc3[nH]c(-c4ccncc4)nc23)cc1 [Compound 430, N-[(4-dimethylaminophenyl)methyl]-2-(4-pyridyl)-1H-imidazo[4,5-c]pyridin-4-amine] | 50 to 100 |
| c1ccc(Cn2cnc3cnc(Nc4ccc5c(c4)OCO5)cc32)cc1 [Compound 695, N-(1,3-benzodioxol-5-yl)-1-benzyl-imidazo[4,5-c]pyridin-6-amine] | 50 to 100 |
| CNc1nc2cnc(-c3cccc(C(F)(F)F)c3)cc2n1C [Compound 831, N,1-dimethyl-6-[3-(trifluoromethyl)phenyl]imidazo[4,5-c]pyridin-2-amine] | 0 to 30 |
| COc1ccc(Nc2nccc3[nH]c(-c4ccsc4)cc23)c(OC)c1 [Compound 251, N-(2,4-dimethoxyphenyl)-2-(3-thienyl)-1H-pyrrolo[3,2-c]pyridin-4-amine] | 30 to 50 |
| FC(F)(F)Oc1cccc(-c2nc3c(NCc4ccccn4)nccc3[nH]2)c1 [Compound 445, N-(2-pyridylmethyl)-2-[3-(trifluoromethoxy)phenyl]-1H-imidazo[4,5-c]pyridin-4-amine] | 30 to 50 |
| CN(C)c1cccc(Nc2nccc3c2cc(-c2ccsc2)n3C)c1 [Compound 277, N1,N1-dimethyl-N3-[1-methyl-2-(3-thienyl)pyrrolo[3,2-c]pyridin-4-yl]benzene-1,3-diamine] | 30 to 50 |
| CN(C)C(=O)c1ccc(-c2cc3cnc(Nc4cccc(O)c4)cc3n2C)cc1 [Compound 53, 4-[6-(3-hydroxyanilino)-1-methyl-pyrrolo[3,2-c]pyridin-2-yl]-N,N-dimethyl-benzamide] | 50 to 100 |
| COc1ccccc1-c1cc2c(Nc3cccc(O)c3)nccc2[nH]1 [Compound 297, 3-[[2-(2-methoxyphenyl)-1H-pyrrolo[3,2-c]pyridin-4-yl]amino]phenol] | 30 to 50 |
| Cn1cc(-c2cc3cnc(Nc4ccc(S(C)(=O)=O)cc4)cc3n2C)cn1 [Compound 152, 1-methyl-2-(1-methylpyrazol-4-yl)-N-(4-methylsulfonylphenyl)pyrrolo[3,2-c]pyridin-6-amine] | > 100 |
